What was measured:
[1] = tested on: L. mexicana amazonentis; experiment: In vitro antileishmanial model: intracellular amastigotes in peritoneal macrophages; format: cell-based; conditions: for Nombre d'amastigotes (b) (% des contrôles): 35°, mean (SD) of 4
Protocol: Le modèle in vitro utilisé, consiste à développer les formes intracellulaires (amastigotes) de Leishmania mexicana anazonentis dans des macrophages péritonéaux de souris Balb/c injectés initialement par les formes promastigotes.
La culture de macrophages est obtenue à partir des cellules de la cavité péritonéale.
Brièvement, la cavité péritonéale est lavée plusieurs fois avec du milieu RPMI 1640 contenant de la pénicilline (100 U/ml) et de la streptomycine (100 µg/ml) additionné de glutamine (2 mM) et de 20 % de sérum de veau foetal décomplémenté à la chaleur. Ce milieu constitue le milieu de culture complet. Après centrifugation de la suspension cellulaire ainsi obtenue, les cellules sont resuspendues dans le même milieu, puis incubées 1 heure à 37° C en présence de 5 % C02 dans des boîtes de Pétri. Les macrophages adhérents sont ensuite lavés plusieurs fois, détachés de leur support puis comptés. Un volume cellulaire contenant 2,5 x 10^5 macrophages est ajouté dans chaque puits (16 mm de diamètre) des boîtes de culture contenant chacun une lamelle en verre. Les cellules sont ainsi cultivées 3 jours à 37°C. Avant d'être utilisées, les cultures sont lavées 2 fois pour retirer les cellules non adhérentes. Dans ces conditions, les cultures contiennent 1,5 à 2,0 x 10^5 macrophages.
La souche de L. mexicana amazonentis est maintenue sous forme promastigote à 27° C par passage successif dans du milieu Schneider Drosophila contenant 100 µg/ml de gentamycine, 2 mM de glutamine, 5 gg/ml d'hémine et additionné de 20 % de sérum de veau foetal décomplémenté.
Une suspension de promastigotes en phase stationnaire est ajoutée à chaque culture de macrophages à raison de 4 parasites par cellule. Les cultures sont incubées à 34,5°-35°C (5 % C02-95 % air) pendant 7 heures. Les cultures infectées sont lavées avec du milieu sans sérum jusqu'à ce qu'il y ait moins de un parasite par 20 macrophages. Une culture (1 boîte à 4 puits) est fixée et colorée au May-Grûnwald Giemsa pour contrôler l'infection (jour 0). S'il y a moins de 50 organismes intracellulaires par 100 macrophages, l'infection est considérée trop faible pour une interprétation correcte des résultats. 24 heures après l'infection, le milieu de culture est remplacé par du milieu frais contenant ou non un agent thérapeutique. Nous avons choisi d'utiliser le dérivé oléoyl-kétoconazole seul ou incorporé à des LSL natives ou acétylées. Le milieu (± l'agent thérapeutique) est renouvelé au jour 3. Au jour 6, des cultures de macrophages Infectés sont fixées, colorées, séchées, la lamelle de verre est ensuite montée sur une lame pour l'observation microscopique.
Le nombre d'amastigotes contenu dans 100 à 200 macrophages est déterminé pour chaque culture. Le nombre moyen d'organismes par 100 macrophages au jour 6 dans les cultures traitées est exprimé en pourcentage du nombre moyen d'organismes par 100 macrophages dans les cultures contrôles au jour 6 (% de survie). Les cultures contrôles contiennent en moyenne 300 à 400 parasites par 100 macrophages; 60 % en moyenne des macrophages sont infectés et contiennent de 5 à 7 amastigotes.

[2] = tested on: Candida tropicalis; experiment: Intracellular infection model: J77468 macrophages infected with Candida tropicalis; format: cell-based; conditions: 2 % de sérum de veau foetal
Protocol: La lignée continue de macrophages J77468 d'origine murine provient d'un clonage de la souche J774 ATCC, et est cultivée en milieu RPMI 1640 additionné de glutamine 2 mM, 10% de sérum de veau foetal (décomplémenté 60 min. à 56°) et de 10 mM Hepes (pH 7.2). Une suspension de 5 10^6 cellules/ml sont infectées avec une culture de Candida tropicalis (5 10^5 levures/ml) provenant d'une culture de nuit dans de la casitone. Le milieu d'infection utilisé est du RPMI contenant 2 % de sérum de veau nouveau-né et 10 mM Hepes (pH 7.2).
Après 3 h d'incubation à 37° dans un mélange d'air 10 % C02, la phagocytose des levures est complète. La suspension cellulaire macrophages-Candida est centrifugée, lavée abondamment et répartie à raison de 10^5 macrophages infectés/alvéole dans des boîtes à 24 alvéoles contenant une lamelle de verre (diamètre 14 mm). Après 3 h de phagocytose (To), sur 100 macrophages, 32 contiennent de 1 à 6 Candida/macrophage, l'infection moyenne étant de 2 Candida/macrophage.
Toutes les levures ont été phagocytées sauf rares exceptions (estimation au microscope optique après coloration au May-Grünwald Giemsa). Douze concentrations différentes des drogues de référence et des drogues encapsulées dans les LDL sont distribuées dans les boîtes contenant les macrophages infectés.
L'évaluation de l'efficacité d'une drogue se fait à chaque concentration. Testées après 18 h d'incubation (37°, dans un mélange air-10 % C02), les levures se multiplient d'abord au sein des cellules hôtes, puis dans le milieu extracellulaire. Le taux de macrophages infectés est alors de 75 % chez les témoins. Une cellule peut contenir de 1 à plus de 20 Candida/cellule, la majorité contient de 2 à 6 levures/cellule. Le milieu de culture contient 10^8 Candida extracellulaires/ml (comptage dans une cellule de Burker).
L'activité d'une drogue encapsulée ou non dans les LDL ou Ac-LDL par rapport à un antifongique de référence, le kétoconazole (K), est déterminé par la concentration micromolaire en drogue réduisant de 50 % le nombre de macrophages infectés par les Candida (=C150). Signalons que parallèlement à la réduction au cours du traitement, du taux de cellules infectées, le nombre de Candida par macrophage infecté diminue fortement (de 1 à 3 levures/cellule).
Le milieu de culture est RPMI + glutamine 2 mM + Hepes 10 mM + 2 % de sérum de veau foetal.

[3] = Leishmania mexicana, Peritoneal macrophage, read-out: Activité (c) (% inhibition)

## CCCCCCCC/C=C\CCCCCCCC(=O)N1CCN(c2ccc(OC[C@H]3CO[C@](Cn4ccnc4)(c4ccc(Cl)cc4Cl)O3)cc2)CC1 [KO1]
[1]; [3]
  inhibition at 0.5 µg/mL: 28%
  inhibition at 1 µg/mL: 43%
  inhibition at 1.4 µg/mL: 50%
  inhibition at 2 µg/mL: 56%
  inhibition at 2.5 µg/mL: 64%
  inhibition at 11 µg/mL: 90%
[1]; compared with kétoconazole
  index thérapeutique (rapport de ED50 kéto sur ED50 K01): 9
[1]; dose 0,5 µg/ml, 6 jours
  Nombre d'amastigotes (b) (% des contrôles): 72 (6) %
[1]; dose 1,0 µg/ml, 6 jours
  Nombre d'amastigotes (b) (% des contrôles): 57 (3) %
[1]; dose 1,4 µg/ml, 6 jours
  Nombre d'amastigotes (b) (% des contrôles): 50 (4) %
[1]; dose 2,0 µg/ml, 6 jours
  Nombre d'amastigotes (b) (% des contrôles): 44 (2) %
[1]; dose 2,5 µg/ml, 6 jours
  Nombre d'amastigotes (b) (% des contrôles): 36 (6) %
[1]; dose 11,0 µg/ml, 6 jours
  Nombre d'amastigotes (b) (% des contrôles): 10 (4) %
[1]; intracellular amastigotes, 6 jours
  ED50 (50 % d'inhibition): 1,4 µg KO1.ml
[2]
  CI50 K/AF: 0,6
[2]; Candida tropicalis, Macrophage, micromolar concentration reducing infected macrophages by 50 %, 18 h, read-out: CI50 (the source's name)
  IC50: 85.3 µM
